The values below are quoted from earlier work in US12485291B2, “Method for treatment of cholangiocarcinoma with cold atmospheric plasma and folfirinox” (Jerome Canady Research Institute for Advanced Biological …, priority 2019, dated 2025).

This data set has as its system metastatic pancreatic cancer. As to conditions: patients with metastatic pancreatic cancer.

In the case of `Nc1ccn([C@@H]2O[C@H](CO)[C@@H](O)C2(F)F)c(=O)n1` [gemcitabine], the overall survival is recorded as 6.8 months.
